Measurements: paper PMC8648660, “Multifunctional thiosemicarbazones targeting sigma receptors: in vitro and in vivo antitumor activities in pancreatic cancer models” (Cellular Oncology, 2021)

Assays:
[1] = tested on: GRP78, ATF6, IRE1 and PERK; assay: qRT-PCR of ER stress markers in pancreatic cancer cells; format: cell-based, human and murine; settings: 50 µM, 2 h
Description: Total RNA was extracted using a phenol/chloroform method, after which 1 µg RNA was reverse-transcribed using an iScript Reverse Transcription Supermix kit according to the manufacturer’s instructions (Bio-Rad Laboratories). 25 ng cDNA was amplified using 10 µl of an IQ™ SYBR Green Supermix (Bio-Rad Laboratories). Primers were designed using qPrimer Depot software (http://primerdepot.nci.nih.gov/). qRT-PCR was carried out using an iQ^TM5 cycler (Bio-Rad Laboratories). The cycling conditions used were: 30 s at 95 °C, followed by 40 cycles of denaturation (15 s at 95 °C) and annealing/extension (30 s at 60 °C). The same cDNA preparations were used to quantify the expression of genes of interest and that of the housekeeping gene S14, which was used to normalize the gene expression levels. Relative quantitation of each sample was performed using Gene Expression Quantitation software (Bio-Rad Laboratories). The results were expressed in arbitrary units. For each gene, the expression level in untreated cells was arbitrarily set at “1”.

caspase 9 = assay: Caspase 9 activity assay in pancreatic cancer cells; format: cell-based, human and murine; settings: 2 h
Description: Caspase 3, caspase 7 and caspase 9 activation was measured using a Caspase 3/7 Fluorescence Assay kit (Cayman Chemical, Ann Arbor, MI, USA) and a Caspase 9 fluorometric assay kit (Enzo Life Science, Roma, Italy). The results are expressed as nmol of the hydrolyzed substrate of each caspase/mg cellular proteins, according to a previously set titration curve.

PANC02 cells = assay: Cell viability MTT assay 48 h; format: cell-based, murine; settings: Mus musculus, MTT 48 h, read-out: Activity EC50 ± SEM, PANC02
Description: Cell viability was assessed using a MTT assay at 48 h. On day 1, 25,000 cells/well were seeded into 96-well plates in 100 µl culture medium. On day 2, drugs at concentrations ranging from 1 µM to 100 µM were added. In all experiments the drug-solvents (EtOH, DMSO) were added as controls to evaluate possible solvent cyto-toxicities. After the established incubation time with drugs (48 h), MTT (0.5 mg/ml) was added to each well, and after 3–4 h incubation at 37 °C, the supernatants were removed. The formazan crystals formed were solubilized using 100 µl DMSO/EtOH (1:1) after which the absorbance values at 570 and 630 nm were determined using a microplate reader Victor 3 from PerkinElmer Life Sciences.

sigma-2 receptors [2] = biological target: T1, sigma-2 receptors (Mus musculus, UniProt Q8VD00); assay: Flow cytometry displacement of sigma-2 fluorescent ligand NO1 in murine KP02 cells; format: binding
T1 construct: endogenous in cells; host or cells: KP02 (murine pancreatic cancer cells)
T1 sequence (Q8VD00 whole entry): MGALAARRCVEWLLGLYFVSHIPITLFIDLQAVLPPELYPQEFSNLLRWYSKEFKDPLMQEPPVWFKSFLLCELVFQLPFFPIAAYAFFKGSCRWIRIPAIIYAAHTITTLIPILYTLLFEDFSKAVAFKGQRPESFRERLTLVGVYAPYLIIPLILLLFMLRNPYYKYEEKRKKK
Description: Flow cytometry studies to detect receptor densities and ligand binding affinities were carried out according to Abate et al. and Niso et al., for the sigma-1 and sigma-2 receptors, respectively. […] At the end of the incubation periods, the cells were washed twice with PBS, detached with […] Cell Dissociation Solution (Sigma Chemical Co.) for 10 min at 37 °C, centrifuged at 13,000 g for 5 min and resuspended in 500 µl PBS. Fluorescence was recorded using a Bio-Guava® easyCyte™ 5 Flow Cytometry System (Millipore, Billerica, MA, USA) equipped with a 530 nm band pass filter. For each analysis, 50,000 events were collected and analyzed using InCyte software (Millipore).

[3] = mouse, in vivo
Description: 2 × 10^5 PANC-1 or Mia-PaCa2 cells were inoculated subcutaneously in the right flank of 6-week old C57BL/6 female nude mice (Charles River Laboratories Italia, Calco), housed (5 per cage) under a 12 h light/dark cycle, with food and drinking water provided ad libitum. Tumor growth was measured daily by caliper, according to the equation (LxW^2)/2, where L = tumor length and W = tumor width. […] Tumor volumes and animal weights were monitored daily. Animals were euthanized at day 18 or 36 after randomization with zolazepam (0.2 ml/kg) and xylazine (16 mg/kg). […] Red blood cell (RBC) count, hemoglobin (Hb), white blood cell (WBC) count, platelet (PLT) count, lactate dehydrogenase (LDH), aspartate aminotransferase (AST), alanine aminotransferase (ALT), alkaline phosphatase (AP), creatinine and creatine phosphokinase (CPK) were measured in blood samples collected immediately after euthanasia, using commercially available kits from Beckman Coulter Inc (Beckman Coulter, Miami, FL, USA).
Blood was collected immediately after euthanasia and analyzed for red blood cells (RBC) count, hemoglobin (Hb), white blood cells (WBC) count, platelets (PLT) count, lactate dehydrogenase (LDH), aspartate aminotransferase (AST), alanine aminotransferase (ALT), alkaline phosphatase (AP), creatinine, creatine phosphokinase (CPK). Data are presented as means ± SD.

[4] = tested on: GRP78, ATF6, IRE1 and PERK; assay: Western blotting of ER stress markers in pancreatic cancer cells; format: cell-based, human and murine; settings: 50 µM, 2 h
Description: Cells were rinsed with ice-cold lysis buffer (50 mM, Tris, 10 mM EDTA, 1 % v/v Triton-X100), supplemented with protease inhibitor cocktail set III (80 µM aprotinin, 5 mM bestatin, 1.5 mM leupeptin, 1 mM pepstatin; Calbiochem, San Diego, CA, USA), 2 mM phenylmethylsulfonyl fluoride and 1 mM Na3VO4, then sonicated and centrifuged at 13,000 g for 10 min at 4 °C. 20 µg protein extracts were subjected to SDS-PAGE and probed with antibodies directed against ATG5, ATG7, ATG12, beclin, p62, LC3, GRP78, ATF6, IRE-1α and PERK (all from Abcam, Cambridge, UK), followed by incubation with a peroxidase-conjugated secondary antibody (Bio-Rad Laboratories). Next, the membranes were washed with Tris-buffered saline-Tween 0.1 % v/v solution, and proteins were detected by enhanced chemiluminescence (Bio-Rad Laboratories). To check for equal loading, the samples were probed with an anti-β-tubulin antibody (Santa Cruz Biotechnology Inc., Santa Cruz, CA, USA).

sigma-2 receptors [5] = biological target: T2, sigma-2 receptors (Rattus norvegicus, UniProt Q5U3Y7); assay: Sigma-2 radioligand binding assay ([3H]-DTG, rat liver membranes)
T2 construct: in rat liver membranes; from tissue; host or cells: rat liver membranes
T2 sequence (Q5U3Y7 whole entry): as the sequence (Q8VD00 whole entry) above, with L4V, A5T, L26M, V33L, L71F, A105V, L118I, V127I, S136N, Y169F counted along it
Description: Sigma-2 receptor binding was carried out according to Berardi et al.. […] Concentrations required to inhibit 50 % of radioligand-specific binding (IC50) were determined using six to nine different concentrations of the drug in two or three experiments with samples in duplicate. Scatchard parameters (Kd and Bmax) and apparent inhibition constant (Ki) values were determined by nonlinear curve fitting, using Prism version 5.0, GraphPad software.

mitochondrial ROS = assay: Mitochondrial ROS measurement (MitoSOX); format: cell-based, human and murine; settings: 50 µM, 2 h
Description: Intra-mitochondrial ROS was measured using fluorescent probe MitoSOX as per manufacturer’s instructions (Invitrogen). To measure total ROS, cells were incubated with the ROS-sensitive probe 5-(and-6)-chlorometyl-20,70-dichlorodihydro-fluorescein diacetate-acetoxymethyl ester ([…]; DCFDA-AM) as described by Riganti et al.. The results are expressed as nmol/mg mitochondrial or cellular protein, respectively.

PANC-1 xenografts = assay: In vivo xenograft assay, PANC-1; set-up: species or system mice; settings: for tumor growth / intratumor apoptosis (cleaved caspase 3) and lipid peroxidation: 30 days
Description: 2 × 10^5 PANC-1 or Mia-PaCa2 cells were inoculated subcutaneously in the right flank of 6-week old C57BL/6 female nude mice (Charles River Laboratories Italia, Calco), housed (5 per cage) under a 12 h light/dark cycle, with food and drinking water provided ad libitum. Tumor growth was measured daily by caliper, according to the equation (LxW^2)/2, where L = tumor length and W = tumor width. When tumors reached a volume of 100 mm^3, the mice (n = 8/group) were randomized in the following groups and treated daily for 15 days or 30 days intraperitoneally as reported: (1) Vehicle group (100 µl saline solution), (2) FA4^low group (750 nmol FA4 in 100 µl saline solution), (3) FA4^high group (1500 nmol FA4 in 100 µl saline solution) and (4) Gemcitabine group (20 mg/kg gemcitabine, twice a week). Tumor volumes and animal weights were monitored daily. Animals were euthanized at day 18 or 36 after randomization with zolazepam (0.2 ml/kg) and xylazine (16 mg/kg). Next, tumors were excised and paraffin-embedded. Sections were immuno-stained for cleaved caspase 3 (Cell Signalling Technology, Danvers, MA, USA) or with an anti-malondialdehyde antibody (Abcam), followed by a peroxidase-conjugated secondary antibody (Dako, Glostrup, Denmark). The sections were examined under a Leica DC100 microscope (Leica, Wetzlar, Germany). Quantification of the immunohistochemical analyses was performed using ImageJ software (https://imagej.nih.gov/). The staining intensities were expressed as arbitrary units and considered 1 in the vehicle group.

## CN(C)C(=S)N/N=C1\C(=O)N(CCCCN2CCC3(CC2)OCc2ccccc23)c2ccccc21 [FA4, (Z)-2-(1-(4-(3 H-spiro[isobenzofuran-1,4’-piperidine]-1’-yl)butyl)-2-oxoindolin-3-ylidene)-N,N-dimethylhydrazinecarbothioamide]
[1]
  mRNA expression of ER stress markers GRP78, ATF6, IRE1, PERK: increased upon treatment with FA4 in all the cells tested, except in MiaPaCa2 cells
Caspase 9; 50 µM FA4 plus 0.4 µM mitoquinol
  activation of caspase 9 and caspase 3 with mitoquinol: did not find any activation of caspase 9 and caspase 3
Caspase 9; 50 µM
  caspase 9 activation: observed in all the cells in which FA4 increased mitochondrial ROS and depolarization
PANC02 cells
  EC50: 1.94 ± 0.5 µM
sigma-2 receptors [2]
  IC50: 0.0116 ± 0.0015 µM
[3]
  blood cell counts and hemato-chemical parameters vs control: no significant differences
[4]
  protein expression of ER stress sensors and executers (Western blot): in all cell lines except MiaPaCa2, this thiosemicarbazone was able to increase the expression of ER stress sensors and executers
sigma-2 receptors [5]
  Ki: 0.0158 ± 0.0036 µM
Mitochondrial ROS
  mitochondrial ROS: increased mitochondrial ROS in all the cell lines tested, except MiaPaCa2
PANC-1 xenografts; FA4 750 nmol (low) and 1500 nmol (high) i.p. daily, 15 days
  tumor volume vs vehicle: tumors were significantly smaller
PANC-1 xenografts; FA4 high dosage 1500 nmol i.p. daily
  tumor growth: regression of tumor growth
PANC-1 xenografts; FA4 high dosage
  intratumor apoptosis (cleaved caspase 3) and lipid peroxidation: became more pronounced
PANC-1 xenografts; FA4 low dosage 750 nmol i.p. daily
  tumor growth: cytostatic effect
PANC-1 xenografts; FA4 low dosage
  intratumor apoptosis (cleaved caspase 3) and lipid peroxidation: low or undetectable
